From PubChem BioAssay (NCI)
Values joined by “and” are separate entries in the source; they are usually repeats but may differ in a detail not shown here. Identical values can stand only once.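 Exposure lasted 48 hours, with cells grown in 96-well plates and compounds tested at five concentrations. Abbreviation: GI50, concentration required for 50% inhibition of growth. TGI denotes the concentration required for complete inhibition of growth.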

Columns and labels:
Assay in all cases: NCI anticancer screen, dose series, 48 h
[1] = test system: SF-268 CNS
[2] = test system: LXFL 529 NSCLC
[3] = test system: KM20L2 colon
[4] = test system: 786-0 renal
[5] = test system: SK-MEL-5 melanoma
[6] = test system: M19-MEL melanoma
[7] = test system: XF 498 CNS
[8] = test system: DMS 114 small cell lung
[9] = test system: HOP-18 NSCLC
[10] = test system: SR leukemia
[11] = test system: RXF-631 renal
[12] = test system: NCI-H226 lung
[13] = test system: NCI-H460 lung

Row | Compound | TGI [1] [µM] | TGI [2] | TGI [3] [µM] | TGI [4] | TGI [5] [µM] | TGI [6] | TGI [7] [µM] | TGI [8] [µM] | GI50 [9] [µM] | TGI [9] | TGI [10] [µM] | TGI [11] [µM] | TGI [12] [µM] | TGI [13] [µM]
1 | CCOc1ccccc1N=Nc1ccc2oc(=O)c(C(C)=O)cc2c1 | > 100 | > 100 µM | > 100 | > 100 µM | > 100 | > 100 µM | > 100 | > 100 | – | – | – | – | – | –
2 | COc1cc2c(c(OC)c1OC)-c1ccc(SC)c(=O)cc1[C@@H](NCc1ccc(F)cc1)CC2 | – | 10.1 µM and 18.2 µM | < 0.0075 | 16.8 µM and 25 µM | – | 75 µM and 13.3 µM | – | – | > 100 | 51.3 µM and > 100 µM | 12.8 | 52.4 | – | –
3 | COCC(C)(C)N=CN1Cc2cc3ccccc3nc2C1 | > 100 | – | > 100 | > 100 µM | > 100 | > 100 µM | > 100 | > 100 | – | > 100 µM | > 100 | – | > 100 | > 100
4 | CCCCCCCC/C=C1\CCC(CN(C)C)C1=O (centres undefined) | 21.2 | 3.01 µM | 19.8 | 2.88 µM | 21.7 | 10.5 µM | 12.8 | 13.6 | – | 33.8 µM | 13.1 | 17.9 | 37.3 | 28.4
5 | COC(=O)C(=O)C(C(=O)OC)C(=O)C(=O)Nc1c(C)cccc1C (centres undefined) | > 100 | > 100 µM | > 100 | > 100 µM | > 100 | > 100 µM | > 100 | > 100 | – | > 100 µM | > 100 | > 100 | > 100 | > 100
6 | CC(=O)Nc1[nH]n(C)c(=O)c1-c1nnc(C)s1 | > 100 | > 100 µM | > 100 | > 100 µM | > 100 | – | > 100 | > 100 | – | – | > 100 | > 100 | > 100 | > 100
7 | Cc1ccc(NC(=O)CCCC(=O)CC(=O)c2ccc(Br)cc2)cc1 | > 100 | > 100 µM | > 100 | > 100 µM | > 100 | > 100 µM | – | > 100 | – | > 100 µM | > 100 | > 100 | > 100 | > 100
8 | CC1=C(c2nc3ccccc3s2)C(=O)OC1(C)C | > 100 | > 100 µM | > 100 | > 100 µM | > 100 | > 100 µM | > 100 | > 100 | – | – | > 100 | > 100 | > 100 | > 100
9 | CC(C)c1cccc(C(C)C)c1NC(=O)C(=O)Cc1nc2ccc([N+](=O)[O-])cc2[nH]c1=O | – | > 100 µM | > 100 | > 100 µM | – | > 100 µM | – | > 100 | – | > 100 µM | – | > 100 | > 100 | > 100
10 | Cc1c(O)c(=O)ccn1CCN | > 100 | > 100 µM | > 100 | > 100 µM | – | > 100 µM | – | > 100 | – | > 100 µM | – | > 100 | > 100 | > 100
11 | N#CCCn1[nH]c(=O)c(Cl)c(Cl)c1=O | 32 | 30.6 µM | 29.7 | 39.6 µM | – | 42 µM | 29.6 | 36.5 | – | 30.6 µM | 35.5 | 37.1 | 49.4 | 28.3
